Like-named read-outs stand apart in the source and are kept apart here.
How the values were obtained:
human AR [1] = target: T1, human AR (Homo sapiens, UniProt P10275); assay: Co-transfection assay, AR antagonist activity (CV-1 cells, in presence of DHT); format: cell-based; settings: for IC50: read-out: AR Antagonist CV-1 Cells Potency
T1 sequence (P10275 1-920): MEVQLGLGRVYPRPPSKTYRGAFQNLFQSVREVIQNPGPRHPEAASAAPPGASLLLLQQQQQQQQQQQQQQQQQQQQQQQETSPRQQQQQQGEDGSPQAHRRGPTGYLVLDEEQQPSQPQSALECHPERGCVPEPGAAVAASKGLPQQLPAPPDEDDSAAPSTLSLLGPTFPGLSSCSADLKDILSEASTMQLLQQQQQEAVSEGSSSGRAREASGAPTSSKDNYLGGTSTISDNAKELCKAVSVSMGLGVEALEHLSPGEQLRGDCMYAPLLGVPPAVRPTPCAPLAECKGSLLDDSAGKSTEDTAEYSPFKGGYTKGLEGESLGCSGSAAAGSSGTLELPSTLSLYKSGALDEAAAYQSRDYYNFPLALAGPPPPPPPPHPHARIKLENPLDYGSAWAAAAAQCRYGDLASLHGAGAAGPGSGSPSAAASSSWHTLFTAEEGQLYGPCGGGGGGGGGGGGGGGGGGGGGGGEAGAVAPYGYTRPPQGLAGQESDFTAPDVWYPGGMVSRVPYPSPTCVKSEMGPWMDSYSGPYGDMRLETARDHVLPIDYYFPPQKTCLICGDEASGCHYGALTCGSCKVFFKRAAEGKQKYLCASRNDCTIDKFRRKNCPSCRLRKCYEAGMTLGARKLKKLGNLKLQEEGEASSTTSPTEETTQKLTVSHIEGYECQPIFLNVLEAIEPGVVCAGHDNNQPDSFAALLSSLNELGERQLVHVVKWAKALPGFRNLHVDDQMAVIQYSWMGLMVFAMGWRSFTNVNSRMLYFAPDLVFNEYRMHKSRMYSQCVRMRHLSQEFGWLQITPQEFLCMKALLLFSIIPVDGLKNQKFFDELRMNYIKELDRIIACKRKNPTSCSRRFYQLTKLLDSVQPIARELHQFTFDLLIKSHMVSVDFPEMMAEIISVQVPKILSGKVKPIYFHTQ

human AR [2] = target: T1, human AR; assay: Co-transfection assay, AR agonist activity (CV-1 cells, MTV-LUC reporter); format: cell-based; settings: for EC50: agonist potency EC50
human AR [3] = target: T1, human AR; assay: AR whole cell competitive binding assay (COS-1 cells, 3H-DHT); settings: 1 nM 3H-DHT, Cheng-Prusoff
Description: AR Binding: For the whole cell binding assay, COS-1 cells in 96-well microtiter plates containing DMEM-10% FBS were transfected as described above with the following plasmid DNA: pRShAR (2 ng/well), pRS-β-Gal (50 ng/well) and pGEM (48 ngcwell). Six hours after transfection, media was removed, the cells were washed with PBS and fresh media was added. The next day, the media was changed to DMEM-serum free to remove any endogenous ligand that might be complexed with the receptor in the cells.
Three replicates were used for each sample. […] The remaining media was removed, the cells were washed three times with PBS to remove unbound ligand, and cells were lysed with a Triton X-100-based buffer.
For the saturation analyses, the difference between the total binding and the nonspecific binding, normalized by the β-Gal rate, was defined as specific binding. […] The Ki values were determined by application of the Cheng-Prusoff equation to the IC50 values, where:
After correcting for non-specific binding, IC50 values were determined. […] The IC50 value was determined graphically from a log-logit plot of the data. The Ki values were determined by application of the Cheng-Prusoff equivuation to the IC50 values, the labeled ligand concentration and the Kd of the labeled ligand.

[4] = CV-1 cells, antagonist potency IC50, DHT at its EC50
[5] = CV-1 cells, percent maximal inhibition, DHT at its EC50
[6] = CV-1 cells, percent maximal response relative to reference agonist DHT

Molecule | IC50 (human AR [1]; [4]) | AR Antagonist CV-1 Cells Efficacy (%) (human AR [1]; [5]) | EC50 (human AR [2]; CV-1 cells) | IC50 (human AR [1]) | AR Agonist CV-1 Cells Efficacy (%) (human AR [2]; [6]) | Ki (human AR [3]) | AR Antagonist CV-1 Cells Efficacy (%) (human AR [1]) | AR Agonist CV-1 Cells Efficacy (%) (human AR [2])
4-Methyl-6-(2,4-dichlorolphenyl)-2(1H)-quinolinone [Compound 762] | 63 nM | 81% | > 10000 nM | – | – | – | – | –
CCCN(c1ccc2[nH]c(=O)cc(C(F)(F)F)c2c1)C(C)CC (racemic) [Compound 255, (±)-6-(N-Propyl-N-1-methylpropyl)amino-4-trifluoromethyl-2(1H)-quinolinone] | – | na (na = not active (i.e. efficacy of <20 and potency of >10,000)) | 25 nM | > 10000 nM | 135% | 67 nM | – | –
CC(C)CN(c1ccc2[nH]c(=O)cc(C(F)(F)F)c2c1)C(C)C(F)(F)F (racemic) [Compound 290, (±)-6-(N-Isobutyl-N-2,2,2-trifluoroisopropyl)amino-4-trifluoromethyl-2(1H)-quinolinone] | – | 50% | 32 nM | 50 nM | 37% | > 1000 nM | – | –
CC1CCCCN1c1ccc2[nH]c(=O)cc(C(F)(F)F)c2c1 (racemic) [Compound 314, (±)-6-(2-Methyl-1-piperidino)-4-trifluoromethyl-2(1H)-quinolinone] | – | na (na = not active (i.e. efficacy of <20 and potency of >10,000)) | 5.3 nM | > 10000 nM | 83% | 4.6 nM | – | –
O=c1cc(C(F)(F)F)c2cc(N3CCCCC3CO)ccc2[nH]1 (racemic) [Compound 331, (±)-6-(2-Hydroxymethyl-1-piperidino)-4-trifluoromethyl-2(1H)-quinolinone] | – | 42% | 21 nM | 5.7 nM | 44% | > 1000 nM | – | –
O=c1cc(C(F)(F)F)c2cc(N3CCCC3Cc3ccccc3)ccc2[nH]1 (racemic) [Compound 341, (±)-6-(2-Benzyl-1-pyrrolidino)-4-trifluoromethyl-2(1H)-quinolinone] | – | 85% | > 10000 nM | 15 nM | – | 277 nM | – | –
CC1(C)CC2CC(C)(CN2c2ccc3[nH]c(=O)cc(C(F)(F)F)c3c2)C1 (racemic) [Compound 350, (±)-6-(1,3,3-Trimethyl-6-azabicyclo[3.2.1]octanyl-6-)-4-trifluoromethyl-2(1H)-quinolinone] | – | na (na = not active (i.e. efficacy of <20 and potency of >10,000)) | 29 nM | > 10000 nM | 73% | 165 nM | – | –
CC1CN(c2ccc3[nH]c(=O)cc(C(F)(F)F)c3c2)C(C(F)(F)F)O1 (racemic) [Compound 351, (±)-6-(2-Trifluoromethyl-5-cis-methyl-1-oxazolidino)-4-trifluoromethyl-2(1H)-quinolinone] | > 10000 nM | na (na = not active (i.e. efficacy of <20 and potency of >10,000)) | 23 nM | – | 79% | 31 nM | – | –
CC1COC(C(F)(F)F)N1c1ccc2[nH]c(=O)cc(C(F)(F)F)c2c1 (racemic) [Compound 352, (±)-6-(2-Trifluoromethyl-5-trans-methyl-1-oxazolidino)-4-trifluoromethyl-2(1H)-quinolinone] | – | na (na = not active (i.e. efficacy of <20 and potency of >10,000)) | 12 nM | > 10000 nM | 113% | 25 nM | – | –
CCCC1CCC(CCC)N1c1ccc2[nH]c(=O)cc(C(F)(F)F)c2c1 (racemic) [Compound 365, (±)-6-(2,5-trans-Dipropyl-1-pyrrolidino)-4-trifluoromethyl-2(1H)-quinolinone] | – | 43% | 55 nM | 14 nM | 36% | 124 nM | – | –
CSCC1CCCCN1c1ccc2[nH]c(=O)cc(C(F)(F)F)c2c1 (racemic) [Compound 426, (±)-6-(2-Thiomethoxymethyl-1-piperidino)-4-trifluoromethyl-2(1H)-quinolinone] | – | na (na = not active (i.e. efficacy of <20 and potency of >10,000)) | 45 nM | > 10000 nM | 93% | 28 nM | – | –
CCCNc1ccc2[nH]c(=O)cc(C(F)(F)F)c2c1 [Compound 204, 6-Propylamino-4-trifluoromethyl-2(1H)-quinolinone] | – | – | – | – | – | – | 72% | 34%
CCCCN(CCCC)c1ccc2[nH]c(=O)cc(C(F)(F)F)c2c1 [Compound 220, 6-Dibutylamino-4-trifluoromethyl-2(1H)-quinolinone] | – | – | – | – | – | – | 54% | 68%
CCN(c1ccc2[nH]c(=O)cc(C(F)(F)F)c2c1)C(C)C [Compound 239, 6-(N-Ethyl-N-isopropyl)amino-4-trifluoromethyl-2(1H)-quinolinone] | – | – | – | – | – | – | na (key: na = not active (i.e. efficacy of <20 and potency of >10,000)) | 83%
Cc1cc(=O)[nH]c2ccc(N(CC(F)(F)F)CC(F)(F)F)cc12 [Compound 377, 6-(bis-2,2,2-Trifluoroethyl)amino-4-methyl-2(1H)-quinolinone] | – | – | – | – | – | – | na (key: na = not active (i.e. efficacy of <20 and potency of >10,000)) | 89%
Cc1cc(=O)[nH]c2ccc(N(CC(C)C)CC(F)(F)F)cc12 [Compound 381, 6-(N-Isobutyl-N-2,2,2-trifluoroethyl)amino-4-methyl-2(1H)-quinolinone] | – | na (na = not active (i.e. efficacy of <20 and potency of >10,000)) | – | – | 72% | – | – | –
CCCNc1ccc2c(C(F)(F)F)cc(=O)[nH]c2c1 [Compound 513, 7-Propylamino-4-trifluoromethyl-2(1H)-quinolinone] | – | – | – | – | – | – | 84% | –
CC(C)Nc1ccc2c(C(F)(F)F)cc(=O)[nH]c2c1 [Compound 514, 7-Isopropylamino-4-trifluoromethyl-2(1H)-quinolinone] | – | – | – | – | – | – | 87% | –
O=c1cc(C(F)(F)F)c2ccc(NCC(F)(F)C(F)(F)F)cc2[nH]1 [Compound 520, 7-(2,2,3,3,3-Pentafluoropropyl)amino-4-trifluoromethyl-2(1H)-quinolinone] | – | – | – | – | – | – | 76% | –
O=c1cc(C(F)(F)F)c2ccc(NCC(F)(F)F)cc2[nH]1 [Compound 523, 7-(N-2,2,2-Trifluoroethyl)amino-4-trifluoromethyl-2(1H)-quinolinone] | – | – | – | – | – | – | 62% | 29%
O=C(Nc1ccc2c(C(F)(F)F)cc(=O)[nH]c2c1)C(F)(F)F [Compound 528, 7-(Trifluoroacetamido)-4-trifluoromethyl-2(1H)-quinolinone] | – | 59% | 1300 nM | 26 nM | 36% | – | – | –
C=CC(C)(C)Nc1ccc2c(C(F)(F)F)cc(=O)[nH]c2c1 [Compound 559, 7-(1,1-Dimethylallyl)amino-4-trifluoromethyl-2(1H)-quinolinone] | – | – | – | – | – | – | 92% | –
CCC(C)c1cc2c(C(F)(F)F)cc(=O)[nH]c2cc1N (centres unmarked) [Compound 581, 7-Amino-6-sec-butyl-4-trifluoromethyl-2(1H)-quinolinone] | – | 23% | – | – | 39% | – | – | –
